The text below walks through data of patent US20240182492A1, “AZAHETEROARYL COMPOUND, PREPARATION METHOD THEREFOR, AND APPLICATION THEREOF” (SHANGHAI BLUERAY BIOPHARMA CO., LTD., priority 2021, published 2024).

The test system of experiment [1] is trimethylation level of histone H3K27 in G401 cells. Briefly: ELISA (H3K27 trimethylation) analysis in G401 cells. In kind it is cell-based. The note with it: H3K27me3 normalized by H3. How it is done: Example 54: ELISA (H3K27 Trimethylation) Analysis
Representative compounds of the present disclosure are diluted in DMSO with 3-fold gradient, and 10 concentration gradients are tested per compound. The maximum testing concentration is 10 μM. The compound is diluted 200-fold into G401 cells cultured in 96-well plates (the final concentration of DMSO is 0.5%). After the cells are cultured for 72 hours, the trimethylation level of histone H3K27 is detected by ELISA method.
Histone extraction: compound-treated cells in a 96-well plate are washed 3 times with 1×PBS (10×PBS buffer (80 g NaCl (Sigma, Product No. S3014), 2 g KCl (Sigma, Product No. 60128), 14.4 g Na2HAPO4 (Sigma, Product No. S5136) and 2.4 g KH2PO4 (Sigma, Product No. P9791) are added to 1 L water, pH to 7.4), and 100 μL of 0.4N HCl is added to each well. The 96-well plate is placed at 4° C. and gently shaken for 2 hours to lyse the cells. The cell lysate is then neutralized with 80 μL of neutralization buffer (0.5M disodium hydrogen phosphate, pH 12.5, 2.5 mM DTT; 1% cocktail (Sigma, Product No. P8340) (mixing the cell lysate and neutralization buffer thoroughly).
ELISA detection method: the cell lysates are transferred in parallel to two 384-well assay plates (PerkinElmer, OptiPlate-384HB, Product No. 6007290). One plate is used to detect the trimethylation level of H3K27, and the other plate is used to measure the level of H3. PBS is adjusted to a final volume of 50 μL/well. The wells are coated overnight at 4° C. On the next day, the solution in the wells was discarded. TBST buffer (1 xTBS (10×TBS: 24.2 g Tris (Sigma, Product No. T6066) and 80 g NaCl (Sigma, Product No. S3014) are added to 1 L water, and pH is adjusted to 7.6 with HCl) and 0.1% Tween-20) is used to wash it 5 times, and the water is dried on absorbent papers. 70 μL of blocking buffer (TBST, 5% BSA) is added to the coated reaction wells, and the wells are incubated for 1 hour at room temperature. The blocking buffer was discarded, and the primary antibody is added (30 μL/well). The required primary antibodies are diluted with blocking buffer, and the dilution ratios were as follows: anti-H3K27me3 antibody (Cell Signaling Technology, Product No. 9733), 1:2000 dilution; anti-H3 antibody (Cell Signaling Technology, Product No. 4499), 1:10000 dilution. After adding the primary antibody, the wells are incubated at room temperature for 1 hour. After washing with TBST for 5 times, the water are dried. The secondary antibody (30 μL/well) is added to each reaction well, and the wells are incubated at room temperature for 1 hour. Secondary antibody (anti-rabbit antibody (Jackson ImmunoResearch, Product No. 111-035-003)) is used after dilution 2000-fold in blocking buffer. After 1 hour, it is washed with TBST and dried. 30 μL of ECL substrate (Pierce, Product No. 34080) is added to each well and centrifuged for 30 seconds at 2000 rpm. Signal of each sample is detected using Molecular Devices, SpectraMax. Data processing: H3K27 methylation readings are first normalized by H3 signal. 0.500 DM8)-treated sample is used as a control, and the inhibition percentage of the compound is calculated. The data is fitted to a dose-response curve using the GraphPad prisim5 program, obtaining the IC50 values of the test compounds.
For orientation: An ELISA detects its analyte on a solid surface through an enzyme-linked reagent.

The test system of experiment [2] is B-cell non-Hodgkin lymphoma cells KARPAS-422. Kind of experiment: Cell proliferation analysis, KARPAS-422, 13 days, CellTiter-Glo. The format is cell-based, Human. On the procedure:
Example 55: Cell Proliferation Analysis
Human B-cell non-Hodgkin lymphoma cells KARPAS-422 S were cultured in culture flasks using standard cell culture conditions. The culture medium contains 15% fetal bovine serum (FBS, Invitrogen, product number 10099-141), 1% penicillin/streptomycin solution (P/S) RPMI-1640 (Invitrogen, product number 11875), and the culture flask is placed and cultured in a sterile incubator at 37° C., 95% relative humidity, and 5% CO2. In order to detect the effect of PRC2 inhibitors on cell proliferation, cells in the exponential growth phase were seeded into 96-well plates (Corning, product number 3904) at a density of 1×10^4 cells/well, and 100 μL of medium was added to each well. Subsequently, the compounds disclosed herein at different concentrations were added to the wells seeded with cells (9 concentration gradients were set for each compound, and the highest detection concentration was 10 μM, 3-fold gradient dilution), and 2 repeats in parallel were set for each treatment concentration. The final concentration of DMSO is 0.5%. Then the number of surviving cells was counted with Vi-CELL (Beckman Coulter) every 3-4 days. The cells counted each time were seeded into a new 96-well plate at the same density (1×10^4 cells/well). The wells were supplemented with fresh medium to 100 μL, and different concentrations of the compound were added at the same time. The cells were cultured until the 13th day, on which 100 μL of CellTiter-Glo (CellTiter-GloCellTiter-GloCellTiter-GloCTG) (Promega, Product No. G7573) was added to each well. The plate was placed for 10-20 minutes in the dark at room temperature, and Molecular Devices and SpectraMax i3X were used to read the luminous signal. The data were fitted to a dose-response curve using GraphPad prisim5 and the IC50 values of the tested compounds were obtained.
(In general: Cellular ATP, detected with luciferase, serves as a proxy for viable cell number.)

For experiment [3], the target named is T1, EED protein (full-length, His6 tag) binding to H3K27me3 polypeptide (Homo sapiens, UniProt O75530).
T1 construct: The full-length EED protein (441 amino acids) with His6 tag
T1 sequence (O75530 whole entry): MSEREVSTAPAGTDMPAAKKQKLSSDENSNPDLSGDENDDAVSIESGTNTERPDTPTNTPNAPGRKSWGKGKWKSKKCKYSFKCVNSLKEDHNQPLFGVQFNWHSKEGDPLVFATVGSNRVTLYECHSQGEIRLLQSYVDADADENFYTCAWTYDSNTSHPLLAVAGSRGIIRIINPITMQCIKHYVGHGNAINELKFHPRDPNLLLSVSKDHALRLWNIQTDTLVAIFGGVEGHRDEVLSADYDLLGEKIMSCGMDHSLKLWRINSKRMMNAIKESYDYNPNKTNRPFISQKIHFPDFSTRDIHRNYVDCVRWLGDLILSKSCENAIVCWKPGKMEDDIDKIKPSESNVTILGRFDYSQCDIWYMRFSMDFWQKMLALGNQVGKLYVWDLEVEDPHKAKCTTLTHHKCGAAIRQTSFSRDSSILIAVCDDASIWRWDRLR
Briefly: AlphaScreen evaluation of blocking the binding of EED to H3K27Me3. The note with it: EED / biotinylated H3K27me3 peptide competition. On the procedure:
Example 53: Evaluation of the Effect of the Compound in Blocking the Binding of EED to H3K27Me3 by AlphaScreen (a-Screening) Method
First, compound solutions with different concentration gradients are prepared. Compound powder is dissolved in DMSO to form mother liquor. 1.5 μL of the compound mother liquor is taken to 198.5 μL reaction buffer (25 mM HEPES (pH 8.0), 50 mM NaCl, 0.015% Tween 20, 0.5% BSA) and the solution is mix uniformly, and then 3-fold gradient dilution is performed with the above buffer containing 0.75% DMSO. 9 different test concentrations are set for the same compound. 5 μL of compounds with different concentration gradients was taken to ProxiPlate-384 Plus, White detection plate (PerkinElmer, 6008280), and 2 parallel replicates are set for each concentration gradient.
Next, a binding blocking reaction is performed. The full-length EED protein (441 amino acids) with His6 tag is diluted to 60 nM with the above buffer, and the biotinylated polypeptide fragment H3K27me3 (amino acids 19-33) (Biotinylated-H3K27me3) is diluted to 75 nM with the same buffer. 5 μL of 75 nM peptide fragments and 5 μL of 60 nM protein are transferred to the testing wells containing the compound respectively. The testing plate is sealed with a film, and is incubated for 30 minutes at room temperature.
Finally, AlphaScreen method is used for detection. Before use, nickel chelate acceptor beads and streptavidin donor beads (Perkin Elmer, product number 6760619M) are mixed into the above reaction buffer at a ratio of 1:1, and then 5 μL of the above pre-mixed testing solution is added to each testing well. The final concentration of the donor beads and acceptor beads is 5 μg/mL. The testing plate is covered with tin foil and placed at room temperature in the dark for 1 hour. Signals are read using an AlphaScreen detector on a Spectra max i3. The AlphaScreen signal is normalized according to the readings obtained from the positive control (maximum signal control) and negative control (minimum signal control) to give the inhibition rate of different concentrations of the compound. After that, non-linear regression analysis was performed with GraphPad Prism 5, and dose-response equation Y=Bottom+(Top−Bottom)/(1+10^((Log IC50−X)*HillSlope)) is used to make an inhibition curve, obtaining the IC50 value of each compound. […]
On the technique in general: Alpha assays give light when donor and acceptor beads are brought close together.

Where [4] appears, read: Homo sapiens, KARPAS-422, 312 h, Karpas-422, 13 days.

As usually defined, the IC50 is the concentration that inhibits the measured activity by half. Lower therefore signals higher potency. As for `CCC(O)c1ccc(-c2cnc(NCc3c(F)ccc4c3CCO4)n3cnnc23)c2ncnn12` (single isomer, unassigned) [Compound f], the IC50 in experiment [1] (72 hours) was determined as 0.0013 µM; in experiment [2] (Karpas-422, 13 days), 0.0054 µM; in experiment [3] it was 0.0066 µM.
As to `CC(O)(CF)c1ccc(-c2cnc(NCc3c(F)ccc4c3CCO4)n3cnnc23)c2ncnn12` (stereo not drawn) [1-fluoro-2-[8-(5-{[(5-fluoro-2,3-dihydro-1-benzofuran-4-yl)methyl]amino}-[1,2,4]triazolo[4,3-c]pyrimidin-8-yl)-[1,2,4]triazolo[1,5-a]pyridin-5-yl]propan-2-ol], the IC50 in experiment [1] (Homo sapiens, G-401, 72 h) stood at 0.0011 µM; in experiment [2] (setting [4]), 0.0022 µM; in experiment [3], 0.0043 µM.
Consider `OC1(c2ccc(-c3cnc(NCc4c(F)ccc5c4CCO5)n4cnnc34)c3ncnn23)CCC1` [1-[8-(5-{[(5-fluoro-2,3-dihydro-1-benzofuran-4-yl)methyl]amino]-[1,2,4]triazolo[4,3-c]pyrimidin-8-yl)-[1,2,4]triazolo[1,5-a]pyridin-5-yl]cyclobutan-1-ol], for which the IC50 in experiment [1] (Homo sapiens, G-401, 72 h) is 0.0003 µM; in experiment [2] (setting [4]), 0.0016 µM; in experiment [3] it was 0.0055 µM.
For `CCC(C)(O)c1ccc(-c2cnc(NCc3c(F)ccc4c3CCO4)n3cnnc23)c2ncnn12` (single isomer, unassigned) [Compound a], the IC50 in experiment [1] (Homo sapiens, G-401, 72 h) worked out at 0.0012 µM; in experiment [2] (setting [4]), 0.0041 µM; in experiment [3], 0.0054 µM.
Consider `OC1(c2ccc(-c3cnc(NCc4c(F)ccc5c4CCO5)n4cnnc34)c3ncnn23)CC1` [1-[8-(5-{[(5-fluoro-2,3-dihydro-1-benzofuran-4-yl)methyl]amino]-[1,2,4]triazolo[4,3-c]pyrimidin-8-yl)-[1,2,4]triazol[1,5-a]pyridin-5-yl]cyclopropan-1-ol], for which the IC50 in experiment [1] (Homo sapiens, G-401, 72 h) turned out to be 0.0009 µM; in experiment [2] (setting [4]), 0.0033 µM; in experiment [3] it was 0.0047 µM.
Consider `CCC(O)(CC)c1ccc(-c2cnc(NCc3c(F)ccc4c3CCO4)n3cnnc23)c2ncnn12` [3-(8-(5-(((5-fluoro-2,3-dihydrobenzofuran-4-yl)methyl)amino)-[1,2,4]triazolo[4,3-c]pyrimidin-8-yl)-[1,2,4]triazolo[1,5-a]pyridin-5-yl)pentan-3-ol], for which the IC50 in experiment [1] (Homo sapiens, G-401, 72 h) is 0.0024 µM; in experiment [2] (setting [4]), 0.0077 µM; in experiment [3], 0.0035 µM.
For `CC(O)(c1ccc(-c2cnc(NCc3c(F)ccc4c3CCO4)n3cnnc23)c2ncnn12)C(F)(F)F` (single isomer, unassigned) [Compound c], the IC50 was found to be 0.0017 µM in experiment [1] (Homo sapiens, G-401, 72 h); 0.0095 µM in experiment [2] (setting [4]); 0.0025 µM in experiment [3].
With `CCC(C)(O)c1ccc(-c2cnc(NCc3c(F)ccc4c3CCO4)n3cnnc23)c2ncnn12` (single isomer, unassigned) [Compound b], the IC50 came to 0.0017 µM in experiment [1] (72 hours); 0.0079 µM in experiment [2] (Karpas-422, 13 days); 0.0089 µM in experiment [3].
In turn, `Cc1ccc(-c2cnc(NCc3c(F)ccc4c3CCO4)n3cnnc23)c2ncnn12` [N-((5-fluoro-2,3-dihydrobenzofuran-4-yl)methyl)-8-(5-methyl-[1,2,4]triazolo[1,5-a]pyridin-8-yl)-[1,2,4]triazolo[4,3-c]pyrimidin-5-amine] returned an IC50 in experiment [3] of 0.0089 µM.
For `CC(O)(CF)c1ccc(-c2cnc(NCc3c(F)ccc4c3CCO4)n3cnnc23)c2ncnn12` (single isomer, unassigned) [Compound g], the IC50 worked out at 0.0006 µM in experiment [1] (Homo sapiens, G-401, 72 h); 0.0015 µM in experiment [2] (setting [4]); 0.004 µM in experiment [3].
For the molecule `CC(O)(c1ccc(-c2cnc(NCc3c(F)ccc4c3CCO4)n3cnnc23)c2ncnn12)C(F)(F)F` (single isomer, unassigned) [Compound d], the IC50 was 0.0047 µM in experiment [1] (Homo sapiens, G-401, 72 hours); 0.0087 µM in experiment [2] (Homo sapiens, KARPAS-422, 312 h); 0.0055 µM in experiment [3].
Consider `Fc1ccc2c(c1CNc1ncc(-c3cccn4ncnc34)c3nncn13)CCO2` [8-([1,2,4]triazolo[1,5-a]pyridin-8-yl)-N-((5-fluoro-2,3-dihydrobenzofuran-4-yl)methyl)-[1,2,4]triazolo[4,3-c]pyrimidin-5-amine], for which the IC50 in experiment [3] came to 0.0047 µM.
As for `Cc1ccc(-c2cnc(NCc3c(F)ccc4c3[C@H]3C[C@H]3O4)n3cnnc23)c2ncnn12` [N-(((1aR,6bR)-5-fluoro-1a,6b-dihydro-1H-cyclopropeno[b]benzofuran-6-yl)methyl)-8-(5-methyl-[1,2,4]triazolo[1,5-a]pyridin-8-yl)-[1,2,4]triazolo[4,3-c]pyrimidin-5-amine], in experiment [3], the IC50 is 0.0035 µM. This IC50 and that of the molecule before are within 1.5-fold of each other.
